Test results from patent publication US20210353557A1, “ORAL COMPOSITION CONTAINING REDUCED COENZYME Q10, METHOD FOR PRODUCING SAME, METHOD FOR PREVENTING DISCOLORATION AND DISCOLORATION PREVENTING AGENT” (SUNTORY HOLDINGS LIMITED, priority 2018, published 2021).

Experiment: Color difference (ΔE) after storage under accelerated condition, Reference Example 1
Assay type: physicochemical
Settings: 40° C., 75% RH; for ΔE After 7 days: 7-day (168-hour) storage; for ΔE After 7 days / ΔE 0-Hour storage: n=1; for change in ΔE value after storage (in words): 7 days; for ΔE 0-Hour storage: start of storage
Description: The L value, a value, and b value of a sample were measured using a color difference meter (trade name: Spectrophotometer SE7700, available from Nippon Denshoku Industries Co., Ltd.). • The number n of samples was 3 for each standard unless otherwise mentioned. The average values of the three samples were defined as the L value, a value, and b value of the standard. • Measurement was performed five times for each sample, and the average value was output as the result. The sample was stirred for each measurement operation so that the whole sample was subjected to the measurement. • In the measurement, about 1 g of a sample was weighed out from a Petri dish for use. The sample in the Petri dish was mixed and homogenized before weighing out.
The ΔE value was calculated by the following formula.
ΔE={(ΔL)^2+(Δa)^2+(Δb)^2}^1/2
For each standard after storage for a predetermined period of time, the ΔE value was calculated based on the 0-time value (value after 0-hour storage) of the standard. For a control after storage for a predetermined period of time, the ΔE value was also calculated based on the 0-time value (value after 0-hour storage) of the control.
About 2 g each of the reduced CoQ10, sesamin compound, theanine, and dextrin were put into separate Petri dishes (n=1) and left to stand at a temperature of 40° C. and a humidity of 75% RH (accelerated condition). The L value, a value, and b value were measured at the start of storage (0-hour storage) and after 7-day (168-hour) storage, and then the ΔE value was calculated. For each sample, the change in appearance after seven days from the start of storage was visually observed.

ΔE After 7 days	change in ΔE value after storage (in words)	appearance by visual observation after seven days	ΔE 0-Hour storage	Compound
0.1	little change in ΔE value after storage	white to pale yellow	0.0	CCNC(=O)CC[C@H](N)C(=O)O [Standard S-3, Theanine]
66.4	increase in ΔE value over time	orange	0.0	COc1c(O)c(C)c(C/C=C(\C)CC/C=C(\C)CC/C=C(\C)CC/C=C(\C)CC/C=C(\C)CC/C=C(\C)CC/C=C(\C)CC/C=C(\C)CC/C=C(\C)CCC=C(C)C)c(O)c1OC [Standard S-1, Reduced CoQ10]
